Read-outs that look alike come from different tables or passages of the source.
Columns and labels:
[1] = test system: HeLa (cervical adenocarcinoma) cells; assay: WST-1 viability assay, HeLa cells; assay type: cell-based; settings: Homo sapiens, read-out: IC50, HeLa (cervical adenocarcinoma)
[2] = test system: U2OS (osteosarcoma) cells; assay: WST-1 viability assay, U2OS cells; assay type: cell-based; settings: Homo sapiens, read-out: IC50, U2OS (osteosarcoma)
[3] = Stability of 8 in buffer (chiral HPLC); assay type: physicochemical; settings: 2 h in 50 mM HEPES, 0.01% TWEEN, 0.1% BSA
Experimental: vacuum manifold with the inert gas passing through a bed of activated 4 Å molecular sieves and self-indicating silica gel. Cs2CO3, K2CO3 and activated MnO2 were dried in an oven prior to use.
PhMgBr (in THF) was titrated against salicaldehyde phenylhydrazone prior to use, according to the procedure of Love and Jones.9
Reactions with microwave irradiation were carried out in a Biotage Initiator microwave […]
In vacuo refers to the use of a rotary evaporator attached to a diaphragm pump. Brine refers to a saturated aqueous solution of sodium chloride. Petroleum ether refers to the fraction boiling between 30–40 °C unless otherwise stated.
Stability of 8 in buffer: 0.5 mg of (+)-8 in 10 μL DMSO was suspended in buffer (50 mM HEPES, 0.01% TWEEN, 0.1% BSA). […]
Cytotoxcity of 8 in HeLa and U2OS cells: HeLa cells were grown and maintained in DMEM supplemented with L-glutamine and 10% fetal calf serum; U2OS cells were grown and maintained in McCoy’s medium supplemented with 10% fetal calf serum. […] After 24 h or 72 h, 10 μL of WST-1 (Roche Diagnostics) was added to the culture medium and cell viability was determined by colorimetric WST-1 conversion assay. Formazan dye formation was measured at 450 nm using a Molecular devices Spectramax Plus384 microplate reader. Relative WST-1 conversion in treated cells compared with untreated control cells was calculated after […]

BRD4(1) = molecular target: T1, BRD4(1) (Homo sapiens, UniProt O60885); assay: AlphaScreen peptide displacement assay (ALPHA), BRD4(1); assay type: binding
T1 construct: amplify the N-terminal bromodomain region of the protein; made in house

PB1(1) = molecular target: T2, PB1(1) (Homo sapiens, UniProt Q86U86); assay: ALPHA selectivity panel, PB1(1); assay type: binding; settings: 25 μM compound, ALPHA assay
T2 construct: the bromodomains from ATAD2, BAZ1A, BAZ2A, BAZ2B, BRD9, BRPF3, CECR2, GCN5L2, PHIP(1), PB1(1), and TIF1α; made in house
Experimental: (§1) The ALPHA assay was also used to determine the selectivity of 8, 9, and 17, 21–23 for BRD4(1) over the bromodomain of CREBBP (Table 2). […] The selectivity of 8 was further evaluated across a phylogenetically diverse range of bromodomains (Figure 5).
(§2) Bromodomain AlphaScreen assays were carried out as previously described.[24],[30] All experiments were carried out in duplicate on the same plate.

[4] = test system: H1975 (lung adenocarcinoma) cells; assay: MTS cytotoxicity assay, H1975 cells; assay type: cell-based; settings: 100 μM, 72 h
From the text: (§3) We also investigated the effects of 8 and 9 in two lung adenocarcinoma cell lines, A549 and H1975. […] H1975 appeared to be somewhat more sensitive to these compounds, a finding confirmed by a clonogenic survival assay (Supporting Information Figure S5).
(§4) Viability of MV4;11, H549, and H1975 cells was monitored by MTS-based CellTiter 96 AQueous nonradioactive cell proliferation assay (Promega, Madison, WI). Viability of U2OS and HeLa cells was monitored by WST-based cell proliferation kit (Roche, Mannheim, Germany). Further details are provided in Supporting Information

PHIP(1) = molecular target: T3, PHIP(1) (Homo sapiens, UniProt Q8WWQ0); assay: ALPHA selectivity panel, PHIP(1); assay type: binding; settings: 25 μM compound, ALPHA assay
T3 construct: the bromodomains from ATAD2, BAZ1A, BAZ2A, BAZ2B, BRD9, BRPF3, CECR2, GCN5L2, PHIP(1), PB1(1), and TIF1α; made in house
Experimental: as §1, §2

CREBBP bromodomain = molecular target: T4, CREBBP bromodomain (Homo sapiens, UniProt Q92793); assay: AlphaScreen peptide displacement assay (ALPHA), CREBBP; assay type: binding; settings: 25 μM compound
T4 construct: made in house

ATAD2 = molecular target: T5, ATAD2 (Homo sapiens, UniProt Q6PL18); assay: ALPHA selectivity panel, ATAD2; assay type: binding; settings: 25 μM compound, ALPHA assay
T5 construct: the bromodomains from ATAD2, BAZ1A, BAZ2A, BAZ2B, BRD9, BRPF3, CECR2, GCN5L2, PHIP(1), PB1(1), and TIF1α; made in house
T5 sequence (Q6PL18 980-1092 limits assumed): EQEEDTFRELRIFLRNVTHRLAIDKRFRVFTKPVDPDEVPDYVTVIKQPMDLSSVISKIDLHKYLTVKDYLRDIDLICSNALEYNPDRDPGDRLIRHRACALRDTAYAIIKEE
Experimental: as §1, §2

[5] = test system: A549 (lung adenocarcinoma) cells; assay: MTS cytotoxicity assay, A549 cells; assay type: cell-based; settings: 100 μM, 72 h
From the text: as §3, §4

TIF1α = molecular target: T6, TIF1α (Homo sapiens, UniProt O15164); assay: ALPHA selectivity panel, TIF1α; assay type: binding; settings: 25 μM compound, ALPHA assay
T6 construct: the bromodomains from ATAD2, BAZ1A, BAZ2A, BAZ2B, BRD9, BRPF3, CECR2, GCN5L2, PHIP(1), PB1(1), and TIF1α; made in house
T6 sequence (O15164 899-1004 limits assumed): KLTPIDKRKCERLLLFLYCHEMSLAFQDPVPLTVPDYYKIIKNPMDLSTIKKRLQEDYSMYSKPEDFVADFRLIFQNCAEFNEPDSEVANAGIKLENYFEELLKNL
Experimental: as §1, §2

BAZ2B = molecular target: T7, BAZ2B (Homo sapiens, UniProt Q9UIF8); assay: ALPHA selectivity panel, BAZ2B; assay type: binding; settings: 25 μM compound, ALPHA assay
T7 construct: the bromodomains from ATAD2, BAZ1A, BAZ2A, BAZ2B, BRD9, BRPF3, CECR2, GCN5L2, PHIP(1), PB1(1), and TIF1α; made in house
T7 sequence (Q9UIF8 2060-2164 limits assumed): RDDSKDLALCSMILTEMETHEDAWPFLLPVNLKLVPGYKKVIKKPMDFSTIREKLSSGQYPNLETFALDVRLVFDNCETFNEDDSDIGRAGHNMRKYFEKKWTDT
Experimental: as §1, §2

GCN5L2 = molecular target: T8, GCN5L2 (Homo sapiens, UniProt Q92830); assay: ALPHA selectivity panel, GCN5L2; assay type: binding; settings: 25 μM compound, ALPHA assay
T8 construct: the bromodomains from ATAD2, BAZ1A, BAZ2A, BAZ2B, BRD9, BRPF3, CECR2, GCN5L2, PHIP(1), PB1(1), and TIF1α; made in house
T8 sequence (Q92830 728-832 limits assumed): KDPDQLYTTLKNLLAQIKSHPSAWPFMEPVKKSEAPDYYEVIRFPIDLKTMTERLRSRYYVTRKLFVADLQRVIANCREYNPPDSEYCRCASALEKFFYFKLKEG
Experimental: as §1, §2

BRD9 = molecular target: T9, BRD9 (Homo sapiens, UniProt Q9H8M2); assay: ALPHA selectivity panel, BRD9; assay type: binding; settings: 25 μM compound, ALPHA assay
T9 construct: the bromodomains from ATAD2, BAZ1A, BAZ2A, BAZ2B, BRD9, BRPF3, CECR2, GCN5L2, PHIP(1), PB1(1), and TIF1α; made in house
T9 sequence (Q9H8M2 136-240 limits assumed): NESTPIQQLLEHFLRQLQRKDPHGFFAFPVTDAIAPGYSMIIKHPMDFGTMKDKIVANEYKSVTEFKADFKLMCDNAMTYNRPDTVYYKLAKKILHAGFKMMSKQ
Experimental: as §1, §2

BRPF3 = molecular target: T10, BRPF3 (Homo sapiens, UniProt Q9ULD4); assay: ALPHA selectivity panel, BRPF3; assay type: binding; settings: 25 μM compound, ALPHA assay
T10 construct: the bromodomains from ATAD2, BAZ1A, BAZ2A, BAZ2B, BRD9, BRPF3, CECR2, GCN5L2, PHIP(1), PB1(1), and TIF1α; made in house
T10 sequence (Q9ULD4 589-693 limits assumed): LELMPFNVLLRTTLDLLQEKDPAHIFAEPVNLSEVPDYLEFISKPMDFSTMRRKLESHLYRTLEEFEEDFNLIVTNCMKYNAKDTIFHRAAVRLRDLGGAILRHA
Experimental: as §1, §2

CECR2 = molecular target: T11, CECR2 (Homo sapiens, UniProt Q9BXF3); assay: ALPHA selectivity panel, CECR2; assay type: binding; settings: 25 μM compound, ALPHA assay
T11 construct: the bromodomains from ATAD2, BAZ1A, BAZ2A, BAZ2B, BRD9, BRPF3, CECR2, GCN5L2, PHIP(1), PB1(1), and TIF1α; made in house
Experimental: as §1, §2

BAZ2A = molecular target: T12, BAZ2A (Homo sapiens, UniProt Q9UIF9); assay: ALPHA selectivity panel, BAZ2A; assay type: binding; settings: 25 μM compound, ALPHA assay
T12 construct: the bromodomains from ATAD2, BAZ1A, BAZ2A, BAZ2B, BRD9, BRPF3, CECR2, GCN5L2, PHIP(1), PB1(1), and TIF1α; made in house
T12 sequence (Q9UIF9 1793-1897 limits assumed): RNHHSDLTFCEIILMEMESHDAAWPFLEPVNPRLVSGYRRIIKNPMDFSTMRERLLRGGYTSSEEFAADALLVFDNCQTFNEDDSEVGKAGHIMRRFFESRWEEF
Experimental: as §1, §2

BAZ1A = molecular target: T13, BAZ1A (Homo sapiens, UniProt Q9NRL2); assay: ALPHA selectivity panel, BAZ1A; assay type: binding; settings: 25 μM compound, ALPHA assay
T13 construct: the bromodomains from ATAD2, BAZ1A, BAZ2A, BAZ2B, BRD9, BRPF3, CECR2, GCN5L2, PHIP(1), PB1(1), and TIF1α; made in house
T13 sequence (Q9NRL2 1430-1533 limits assumed): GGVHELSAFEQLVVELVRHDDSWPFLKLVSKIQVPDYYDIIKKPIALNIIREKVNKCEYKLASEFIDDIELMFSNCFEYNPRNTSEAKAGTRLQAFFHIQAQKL
Experimental: as §1, §2

[6] = viability after 72 h incubation using MTS

T11 sequence (Q9BXF3 434-538 limits assumed): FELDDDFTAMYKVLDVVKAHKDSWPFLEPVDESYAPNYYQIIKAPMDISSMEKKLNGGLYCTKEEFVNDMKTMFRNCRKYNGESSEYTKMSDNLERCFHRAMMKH
T2 sequence (Q86U86 41-151 limits assumed): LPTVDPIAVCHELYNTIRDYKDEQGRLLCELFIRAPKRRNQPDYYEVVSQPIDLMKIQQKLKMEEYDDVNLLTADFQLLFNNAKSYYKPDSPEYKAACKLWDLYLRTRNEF
T4 sequence (Q92793 1085-1192 limits assumed): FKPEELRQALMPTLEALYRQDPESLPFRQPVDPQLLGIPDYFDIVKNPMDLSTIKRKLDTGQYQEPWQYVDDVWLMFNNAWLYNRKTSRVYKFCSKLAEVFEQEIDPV

## Cc1sc2c(c1C)C(c1ccc(Cl)cc1)=N[C@@H](CC(=O)OC(C)(C)C)c1nnc(C)n1-2 [(+)-JQ1, reference compound]
[1]; 72 h
  IC50: 2.1 µM
[2]; 72 h
  IC50: 2.9 µM

## Cc1noc(C)c1-c1cc(O)cc([C@@H](O)c2ccccc2)c1 [(S)-(+)-8, 3-(3,5-Dimethylisoxazol-4-yl)-5-(hydroxy(phenyl)methyl)phenol]
[3]
  enantiomeric excess after incubation in buffer: > 98 % ee
  purity after incubation in buffer: 95%

## CCOc1cc(-c2c(C)noc2C)cc(C(C)O)c1 (centres unmarked) [Compound 3]
BRD4(1); comparison of ALPHA IC50 values
  selectivity for BRD4(1) over CREBBP bromodomain: approximately 6 fold
BRD4(1); for BRD4(1)
  ligand efficiency: 0.39
  lipophilic ligand efficiency: 3.12

## Cc1noc(C)c1-c1cc(O)cc(C(O)c2ccccc2)c1 (centres unmarked) [Compound 8, 3-(3,5-Dimethylisoxazol-4-yl)-5-(hydroxy(phenyl)methyl)phenol]
PB1(1)
  percentage inhibition of PB1(1) bromodomain: little affinity
PB1(1); read-out: percentage inhibition of PB1(1) bromodomain
  inhibition at 25 µM: < 25%
[4]
  effect on viability of H1975 cells: markedly reduced the viability
PHIP(1)
  percentage inhibition of PHIP(1) bromodomain: little affinity
PHIP(1); read-out: percentage inhibition of PHIP(1) bromodomain
  inhibition at 25 µM: < 25%
CREBBP bromodomain
  inhibition at 25 µM: ~100%
BRD4(1); 25 μM compound, ALPHA assay, read-out: inhibition of the BRD4(1) bromodomain
  inhibition at 25 µM: ~100%
ATAD2
  percentage inhibition of ATAD2 bromodomain: little affinity
ATAD2; read-out: percentage inhibition of ATAD2 bromodomain
  inhibition at 25 µM: < 25%
[5]
  effect on viability of A549 cells: markedly reduced the viability
TIF1α
  percentage inhibition of TIF1α bromodomain: little affinity
TIF1α; read-out: percentage inhibition of TIF1α bromodomain
  inhibition at 25 µM: < 25%
[1]; [6]
  IC50: 24 µM
BAZ2B
  percentage inhibition of BAZ2B bromodomain: little affinity
BAZ2B; read-out: percentage inhibition of BAZ2B bromodomain
  inhibition at 25 µM: < 25%
GCN5L2
  percentage inhibition of GCN5L2 bromodomain: little affinity
GCN5L2; read-out: percentage inhibition of GCN5L2 bromodomain
  inhibition at 25 µM: < 25%
BRD9
  percentage inhibition of BRD9 bromodomain: little affinity
BRD9; read-out: percentage inhibition of BRD9 bromodomain
  inhibition at 25 µM: < 25%
BRPF3
  percentage inhibition of BRPF3 bromodomain: little affinity
BRPF3; read-out: percentage inhibition of BRPF3 bromodomain
  inhibition at 25 µM: < 25%
CECR2
  percentage inhibition of CECR2 bromodomain: little affinity
CECR2; read-out: percentage inhibition of CECR2 bromodomain
  inhibition at 25 µM: < 25%
[2]; [6]
  IC50: 19 µM
BAZ2A
  percentage inhibition of BAZ2A bromodomain: little affinity
BAZ2A; read-out: percentage inhibition of BAZ2A bromodomain
  inhibition at 25 µM: < 25%
BAZ1A
  percentage inhibition of BAZ1A bromodomain: little affinity
BAZ1A; read-out: percentage inhibition of BAZ1A bromodomain
  inhibition at 25 µM: < 25%

Source: publication PMC3640414 (Journal of Medicinal Chemistry, 2013)
